The values that follow come from US10137116B2, “Benzimidazole sulfide derivatives for the treatment or prevention of tuberculosis” (priority 2015, dated 2018).

One assay relates to M. tuberculosis 59744. The experiment in a line: microbe, parasite or virus in culture. Format: cell-based. The conditions noted are these: Mycobacterium tuberculosis.
Another assay deals with M. tuberculosis MB3649. The experiment in a line: microbe, parasite or virus in culture. Format: cell-based. As to conditions: Mycobacterium tuberculosis.
The test system of the next assay is M. tuberculosis MI1020. The experiment in a line: microbe, parasite or virus in culture. Format: cell-based. The conditions noted are these: Mycobacterium tuberculosis.
A further assay relates to M. tuberculosis 43061. Briefly: microbe, parasite or virus in culture. Format: cell-based. The conditions noted are these: Mycobacterium tuberculosis.
A further assay deals with M. tuberculosis 45776. Briefly: microbe, parasite or virus in culture. Format: cell-based. As to conditions: Mycobacterium tuberculosis.
For a further assay, the system named is M. tuberculosis 49975. The experiment in a line: microbe, parasite or virus in culture. The format is cell-based. As to conditions: Mycobacterium tuberculosis.
The test system of the next assay is Mtb strains. The experiment in a line: MIC, summary statement for Mtb strains. Format: cell-based. The conditions noted are these: Mycobacterium tuberculosis.
Another assay deals with drug resistant isolates. The experiment in a line: microbe, parasite or virus in culture. As to conditions: Mycobacterium tuberculosis. The format is cell-based, M. tuberculosis.
The test system of assay [1] is Mtb spontaneous-resistant mutants 1 to 3 / rMtb-L176P. The format is cell-based, Mycobacterium tuberculosis.
The next assay concerns Mtb-T313A. The format is cell-based, Mycobacterium tuberculosis.

Each structure is given as a SMILES string. Converted amounts (≈) assume the structure as drawn. “Also recorded” adds a separate entry of the source.

`Cc1c(OCC(F)(F)F)ccnc1CSc1nc2ccccc2[nH]1` [LPZS, Lanzoprazole sulfide]: the MIC is 0.78 µM (≈ 0.276 µg/mL) against M. tuberculosis 59744; 1.37 µM (≈ 0.484 µg/mL) with M. tuberculosis MB3649; 0.94 µM (≈ 0.332 µg/mL) against M. tuberculosis MI1020; 0.49 µM (≈ 0.173 µg/mL) in the assay with M. tuberculosis 43061; 0.52 µM (≈ 0.184 µg/mL) against M. tuberculosis 45776; 1.06 µM (≈ 0.375 µg/mL) in the assay on M. tuberculosis 49975. The MIC against Mtb strains and in the assay with drug resistant isolates was less than 2 µM each time. The “resistance of mutants against compound” value in assay [1] is recorded as “stable phenotypic resistance”. The “activity against T313A mutant” value with Mtb-T313A is listed as “active; also recorded: does not confer high level resistance”.

As to `CCc1nc2ccc(Cl)cn2c1C(=O)NCc1ccc(N2CCC(c3ccc(OC(F)(F)F)cc3)CC2)cc1` [Q203, reference compound], the “activity against T313A mutant” value in the assay on Mtb-T313A was “resistant; also recorded: high level resistance”.
